Data published in US20110275574A1, “METHOD OF INHIBITING PROLIFERATION OF HEPATIC STELLATE CELLS” (Agency for Science, Technology and Research, priority 2009, published 2011).
d = 2'-deoxy (DNA); r = 2'-OH (RNA)

Experiments:
Assay type in all cases: cell-based, rat
Cx43 mRNA = Cx43 mRNA expression by quantitative real-time PCR in HSC-2 cells; settings: HSC-2, Cx43 siRNA 10 nM, 48 hours, relative to mock-transfected
Protocol: Cell culture conditions: Primary hepatic stellate cells were isolated from male Wistar rats according to a previously published procedure (Weiskirchen and Gressner, 2005). The protocol was approved by the Institutional Animal Care and Use Committee (IACUC) of the Biomedical Research Council of Singapore. The purity of primary HSCs was assessed by vitamin A autofluorescence one day after isolation. The cell line HSC-2 was described elsewhere (Maubach et al., 2008). All cells were cultivated in a humidified 37° C. incubator circulated with 5% CO2. High glucose Dulbecco's modified Eagle medium (D-MEM) containing 10% fetal bovine serum, 100 units/ml penicillin and 100 μg/ml streptomycin was used during cell culture. Trypsin-EDTA was purchased from Biochrome (Germany). All other cell culture reagents were from Invitrogen (CA, USA).
(§1) Hepatic stellate cells treatment with recombinant human TGF-β1: Twenty four hours prior to treatment, HSCs were seeded in 75 cm^2 tissue culture flasks. At 60-70% cell confluence, recombinant human TGF-β1 (hTGF-[3]) was added at a final concentration of 1 or 10 ng/ml and incubated for 2, 6, 10, 24 or 30 hours. For the control treatment, only phosphate-buffered saline (PBS) was given to the cells. In some experiments, HSC-2 cells were treated with bisindolylmaleimide I (BIM I) at a final concentration of 5 μM for 30 min before treatment with 10 ng/ml hTGF-β1.
Reverse transcription and quantitative PCR: Total RNA was isolated from cells according to the manufacturer's protocol (RNA II kit, Machery-Nagel, Germany). All reagents for reverse transcription and real-time PCR were from Applied Biosystems (CA, USA). One microgram of total RNA was reverse transcribed to cDNA in a total reaction volume of 50 μl at conditions described in the RT kit (N8080234). Real-time PCR reactions were performed using the Fast Real Time PCR System (Applied Biosystems). Three microlitres of cDNA were used in a PCR reaction volume of 10 μl. The Taqman probes for target genes Cx43 and Snai1, as well as for endogenous control β-actin were Rn01433957_m1, Rn00441533_g1 and 4352341E, respectively. The PCR conditions were 95° C. for 20 s and 40 cycles of amplification at 95° C. for 3 s and 60° C. for 30 s.
(§2) Snai1 and connexin 43 siRNAs transfection: Shortly before transfection, 1−2×10^6 HSC-2 cells were seeded in 100 mm cell culture dishes and incubated at 37° C. The siRNA was added at a final concentration of 10 nM to 1 ml of D-MEM without serum, followed by 120 μl of HiPerfect transfection reagent (Qiagen, Germany) and incubated for 10 min. The siRNA/transfection reagent solution was added drop-wise to the cells and incubated for 24 or 48 hours. As mock control, only HiPerfect reagent was added to the cells. The Snai1 siRNAs used were Rn_Snai1—1 and Rn_Snai1—3 and the Cx43 siRNAs used were Rn_Gja1—1 and Rn_Gja1—5 (Qiagen, Germany).

HSC-2 cells [1] = assay: Cell counting (proliferation) of HSC-2 cells; settings: HSC-2, Cx43 siRNA 10 nM, 48 hours, versus mock-transfected
Protocol: as §2
Cell counting: After treatment, cells were washed once with PBS and detached using trypsin/EDTA. Following centrifugation at 800 rpm for 4 min, the cell pellet was resuspended in 1 ml D-MEM and the cells were counted using the forward scatter function of the GUAVA PCA-96 (Guava Technologies, CA, USA).

pCx43 Ser368 = assay: Phosphorylation of Cx43 at serine 368 by Western blot in HSC-2 cells; settings: HSC-2, 5 μM BIM I 30 min before 10 ng/ml hTGF-β1
Protocol: as §1
SDS-PAGE and Western blot: Cell lysis and subsequent separation of total protein in SDS-PAGE followed by Western blot was performed as recently described (Lim et al., 2008). The membrane was blocked with 5% non-fat milk in TBS-Tween (TBS-T). The Cx43 (sc-9059, Santa Cruz Biotechnology, USA), phosphorylated Cx43 at serine 368 (pCx43 Ser368, 3511S, Cell Signaling Technology, USA), PCNA (Ab29, Abcam, UK) and β-actin (A2228, Sigma, USA) primary antibodies were applied at a dilution of 1:1000, 1:750, 1:5000 and 1:7500 respectively in blocking solution. […] Semi-quantitative densitometric analysis of Western blots was performed using the ImageJ software (W. Rasband, NIH; rsb.info.nih.gov/ij/).

HSC-2 cells [2] = assay: gap-FRAP analysis of gap junction intercellular communication; settings: HSC-2, 5 μM BIM I 30 minutes before 10 ng/ml hTGF-β1
Protocol: Analysis of gap junction intercellular communication: HSC-2 cells were grown in a 60 mm cell culture dish overnight. At 90% cell confluence, hTGF-β1 (final concentration 10 ng/ml) or carbenoxolone (final concentration 40 μM) was added and incubated for 6 hours. As control, only PBS was given to the cells. Alternatively, BIM I (final concentration 5 μM) was added 30 minutes before the addition of hTGF-[3]. After a brief rinse in PBS, cells were incubated in D-MEM without phenol red, containing 5,6-carboxyfluorescein diacetate (Research Organics, USA) at a final concentration of 50 μg/ml and incubated in a 37° C. humidified incubator for 30 min. The cells were then rinsed twice with PBS and D-MEM without phenol red was added before proceeding with the Fluorescence Recovery After Photobleaching (FRAP) assay. The FRAP application included in the software package of the LEICA TCS SP2 equipped with the DM6000 (LEICA, Germany) was used. A 63× immersed objective (Leica HCX APO L U-V-I 63×/0.90 Water UV) was used. The argon laser at 488 nm was used for excitation and the fluorescence signal was captured between 500 and 535 nm. The conditions were as follows: 5 pre-bleach scans at 10% laser power, 40 bleach scans at 100% laser power followed by 60 post-bleach scans at 15 seconds intervals. During the bleaching period, the Zoom mode was used to bleach a single cell (target cell) defined in a region of interest (ROI). All data were corrected for photobleaching during post-bleach acquisition using the whole scanned area. The time constant of recovery, tau (τ), was estimated by fitting the corrected experimental data (OriginPro 7 SR4, OriginLab USA) to the following function: F(t)=F0+(F∞−F0)(1−e^−t/τ), with F(t) being the corrected fluorescence intensity and F∞ being the asymptotic value of the fluorescence intensity. The transfer constant (k) was calculated from k=1/τ and normalized by dividing by the number of cells in contact with the target cell. The fluorescence recovery for each cell was about 50%.

| Compound | down-regulation of Cx43 mRNA (Cx43 mRNA) | total number of cells (HSC-2 cells [1]) | phosphorylation of Cx43 at serine 368 after hTGF-β1 (pCx43 Ser368) | TGF-β1-induced down-regulation of GJIC (HSC-2 cells [2]) |
| --- | --- | --- | --- | --- |
| Cx43 siRNA 1: Cx43 siRNA, sense strand r(CAG UGC ACA UGU AAC UAA U)dTdT [SEQ ID NO: 6], antisense SEQ ID NO: 7 (Qiagen) (sense CAGUGCACAUGUAACUAAUTT; antisense AUUAGUUACAUGUGCACUGTT; sugars from the 5' end r19 d2, backbone not given here) | about 65% | significant decline | – | – |
| Cx43 siRNA 5: Cx43 siRNA, sense strand r(GGU AAG CUU CCC UGG UCU A)dTdT [SEQ ID NO: 9], antisense SEQ ID NO: 10 (Qiagen) (sense GGUAAGCUUCCCUGGUCUATT; antisense UAGACCAGGGAAGCUUACCTT; sugars from the 5' end r19 d2, backbone not given here) | about 65% | significant decline | – | – |
| CN(C)CCCn1cc(C2=C(c3c[nH]c4ccccc34)C(=O)NC2=O)c2ccccc21 [BIM I, bisindolylmaleimide I, reference compound] | – | – | reduces | attenuated |
